Changes are numbered by the printed parent chain. Several values for one entry are separate records, joined by “and”; a condition that tells them apart may be missing. Equal entries are not always repeated.
Assays:
Format in all cases: cell-based
hTA1 T271N = molecular target: T1, hTA1 T271N (Homo sapiens, UniProt Q96RJ0, T271N); experiment: GloSensor cAMP accumulation assay, T271N mutant
T1 construct: expressed in transfected cells; host or cells: HEK293T
T1 sequence (Q96RJ0 1-339 T271N): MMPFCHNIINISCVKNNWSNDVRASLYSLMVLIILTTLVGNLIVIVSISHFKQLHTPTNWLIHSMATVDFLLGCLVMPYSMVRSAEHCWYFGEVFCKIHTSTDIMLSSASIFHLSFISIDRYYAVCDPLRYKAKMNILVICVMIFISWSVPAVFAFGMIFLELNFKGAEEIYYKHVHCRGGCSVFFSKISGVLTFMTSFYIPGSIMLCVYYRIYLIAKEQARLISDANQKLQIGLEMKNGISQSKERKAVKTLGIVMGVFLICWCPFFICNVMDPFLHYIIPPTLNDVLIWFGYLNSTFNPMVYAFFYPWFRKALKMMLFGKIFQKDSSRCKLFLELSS

hTA1 C88/178S = molecular target: T2, hTA1 C88/178S (Homo sapiens, UniProt Q96RJ0, C178S/C88S); experiment: GloSensor cAMP accumulation assay, C88S/C178S double mutant; settings: for Normalized Luminescence Counts (N=2): log[Compound], single replicate values
T2 construct: expressed in transfected cells; host or cells: HEK293T
T2 sequence (Q96RJ0 1-339 C88S/C178S): T1 sequence (Q96RJ0 1-339 T271N) with C88S, C178S, N271T

hTA1 R83H = molecular target: T3, hTA1 R83H (Homo sapiens, UniProt Q96RJ0, R83H); experiment: GloSensor cAMP accumulation assay, R83H mutant;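 also: cells transiently co-expressing hTA1 and a cAMP GloSensor, luminescence read 30 min after agonist addition at room temperature, concentration–response fitted by non-linear regression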
T3 construct: expressed in transfected cells; host or cells: HEK293T
T3 sequence (Q96RJ0 1-339 R83H): T1 sequence (Q96RJ0 1-339 T271N) with R83H, N271T

hTA1 C178S = molecular target: T4, hTA1 C178S (Homo sapiens, UniProt Q96RJ0, C178S); experiment: GloSensor cAMP accumulation assay, C178S mutant; settings: for C178S - Normalized Luminescence Counts (N=2): log[Compound], single replicates
T4 construct: expressed in transfected cells; host or cells: HEK293T
T4 sequence (Q96RJ0 1-339 C178S): T1 sequence (Q96RJ0 1-339 T271N) with C178S, N271T

[1] = C88S, C178S, each row is one independent experiment, 3 replicates
[2] = C178S, each row one experiment (N=2), 3 replicates

With `NCCc1ccc(Oc2ccc(O)cc2)c(I)c1` [T1AM, 3-iodothyronamine] the “ΔpEC50 values (each mutant value - WT average), Mean” value (shortened to “ΔpEC50 values”) (hTA1 T271N; T271N mutant minus WT average, Figure 5B) was 0.1858 and 0.05902, the “pEC50 values, Mean” value (hTA1 T271N; T271N mutant, Figure 5B, each row one independent experiment (3 replicates)) was 6.315 and 6.188 and the “Emax values, Mean” value (hTA1 T271N; T271N mutant, Figure 5B, β-PEA = 100, each row one independent experiment (3 replicates)) was 147.043 and 92.5588. The “pEC50 ± SEM” value (hTA1 T271N; T271N, n=2) was 6.25 ± 0.03, the EC50 (hTA1 T271N; T271N, n=2, read-out: EC50) was 560 nM and the Emax (hTA1 T271N; T271N, relative to β-PEA) was 119.8%. For the same molecule, the “Span ± SEM (Emax normalized to β-PEA)” value (hTA1 C88/178S; C88/178S, n=2) was 98.9 ± 13.16, the “pEC50 ± SEM” value (hTA1 C88/178S; C88/178S, n=2) was 5.96 ± 0.05 and the EC50 (hTA1 C88/178S; C88/178S, n=2, read-out: EC50) was 1090 nM. The “pEC50 values, Mean” value (hTA1 C88/178S; [1]) was 6.084 and 5.841, the “ΔEmax values (each mutant value - WT average), Mean” value (hTA1 C88/178S; [1]) was 15.2915 and 41.6133 and the “ΔpEC50 values” value (hTA1 C88/178S; [1]) was -0.04547 and -0.2881. For the same molecule, the “Normalized Luminescence Counts (N=2)” value (hTA1 C88/178S; C88S, C178S, M = -5) was 73.2176 and 97.3588 and 72.5957 and 103.925 and 90.4821 and 104.378, the “Normalized Luminescence Counts (N=2)” value (hTA1 C88/178S; C88S, C178S, M = -5.522) was 67.1681 and 64.6805 and 64.737 and 67.222 and 55.8941 and 86.253 and the “Normalized Luminescence Counts (N=2)” value (hTA1 C88/178S; C88S, C178S, M = -6) was 53.4297 and 44.4403 and 51.5074 and 51.9671 and 38.3735 and 50.6077. The “Normalized Luminescence Counts (N=2)” value (hTA1 C88/178S; C88S, C178S, M = -6.522) was 23.5782 and 23.1825 and 20.8079 and 20.0978 and 14.6604 and 27.0456, the “Normalized Luminescence Counts (N=2)” value (hTA1 C88/178S; C88S, C178S, M = -7) was 11.3097 and 9.048 and 12.1012 and 6.655 and 6.504 and 10.7333 and the “Normalized Luminescence Counts (N=2)” value (hTA1 C88/178S; C88S, C178S, M = -7.522) was 2.433 and 2.8292 and 3.225 and 0.6137 and -1.652 and -0.1415. The “Normalized Luminescence Counts (N=2)” value (hTA1 C88/178S; C88S, C178S, M = -8) was 0.6808 and 0.7373 and 1.19 and -0.1415 and -0.2925 and 0.9158, the “Normalized Luminescence Counts (N=2)” value (hTA1 C88/178S; C88S, C178S, M = -8.522) was 0.7373 and 0.7939 and 0.285 and -1.501 and 0.1606 and -0.4436 and the “Normalized Luminescence Counts (N=2)” value (hTA1 C88/178S; C88S, C178S, M = -9) was 0.4547 (2×) and 1.981 and -1.199 and -2.558 and -1.652. For the same molecule, the “Normalized Luminescence Counts (N=2)” value (hTA1 C88/178S; C88S, C178S, M = -9.522) was 0.285 (2×) and 0.2285 and -0.4436 and -2.105 and -1.199, the “Normalized Luminescence Counts (N=2)” value (hTA1 C88/178S; C88S, C178S, M = -10) was 1.19 and 0.0589 and 2.2073 and 0.4627 and 0.3116 and -0.1415 and the “Normalized Luminescence Counts (N=2)” value (hTA1 C88/178S; C88S, C178S, M = -10.522) was 1.077 and 0.285 and 1.1331 and 0.1606 and -2.86 and -1.652. The “Normalized Luminescence Counts (N=2)” value (hTA1 C88/178S; C88S, C178S, M = -11) was 1.529 and 0.9635 and 0.2285 and -1.048 and -1.35 and -1.652, the “Normalized Luminescence Counts (N=2)” value (hTA1 C88/178S; C88S, C178S, M = -11.522) was 1.19 and 1.246 and 0.4547 and -0.5946 and -1.199 (2×) and the “Normalized Luminescence Counts (N=2)” value (hTA1 C88/178S; C88S, C178S, M = -12) was 0.3981 and 0.172 and 1.981 and -1.501 and -1.048 and -0.2925. The “Normalized Luminescence Counts (N=2)” value (hTA1 C88/178S; C88S, C178S, M = -12.522) was 1.1331 and 2.773 and 1.19 and -0.1415 and -1.35 and -0.8967, the “Emax values, Mean” value (hTA1 C88/178S; C88S, C178S, normalized (β-PEA = 100), each row is one independent experiment, 3 replicates) was 85.7378 and 112.06 and the “ΔEmax values (each mutant value - WT average)” value (hTA1 R83H; R83H mutant minus WT average) was -50.5458. For the same molecule, the “Emax values, Mean” value (hTA1 R83H; R83H mutant, β-PEA = 100, each line an independent experiment, 3 replicates) was 19.9005 and -6.007, the “Span ± SEM (Emax normalized to β-PEA)” value (hTA1 R83H; R83H, n=2) was 6.95 ± 12.95 and the “pEC50 values, Mean” value (hTA1 C178S; [2]) was 5.899 and 6.116. The “ΔpEC50 values” value (hTA1 C178S; [2]) was -0.2302 and -0.01318, the “Span ± SEM (Emax normalized to β-PEA)” value (hTA1 C178S; C178S, n=2) was 86.82 ± 7.63 and the “pEC50 ± SEM” value (hTA1 C178S; C178S, n=2) was 6.01 ± 0.05. For the same molecule, the EC50 (hTA1 C178S; C178S, n=2, read-out: EC50) was 983 nM, the “Emax values, Mean” value (hTA1 C178S; C178S, β-PEA = 100, each row one experiment (N=2), 3 replicates) was 79.1908 and 94.4471 and the “C178S - Normalized Luminescence Counts (N=2)” value (hTA1 C178S; M = -5) was 73.1003 and 72.1657 and 63.8478 and 81.3738 and 108.419 and 79.3694. The “C178S - Normalized Luminescence Counts (N=2)” value (hTA1 C178S; M = -5.522) was 52.0253 and 55.0627 and 58.1468 and 73.8647 and 83.1688 and 53.1323, the “C178S - Normalized Luminescence Counts (N=2)” value (hTA1 C178S; M = -6) was 32.3989 and 32.726 and 30.2026 and 62.7356 and 57.5001 and 49.3328 and the “C178S - Normalized Luminescence Counts (N=2)” value (hTA1 C178S; M = -6.522) was 18.0529 and 16.5576 and 18.9875 and 30.7245 and 26.2071 and 22.4375. For the same molecule, the “C178S - Normalized Luminescence Counts (N=2)” value (hTA1 C178S; M = -7) was 4.642 and 4.221 and 4.735 and 9.753 and 8.496 and 8.018, the “C178S - Normalized Luminescence Counts (N=2)” value (hTA1 C178S; M = -7.522) was 0.763 and 0.4359 and 0.01533 and 0.9572 and 2.124 and 0.4486 and the “C178S - Normalized Luminescence Counts (N=2)” value (hTA1 C178S; M = -8) was -0.8725 and -0.6389 and -0.8258 and 3.769 and 2.842 and 2.124. For the same molecule, the “C178S - Normalized Luminescence Counts (N=2)” value (hTA1 C178S; M = -8.522) was -0.6389 and -1.6202 and -1.667 and 1.376 and 0.02978 and -2.184, the “C178S - Normalized Luminescence Counts (N=2)” value (hTA1 C178S; M = -9) was -0.5921 and -1.854 and -1.48 and 0.05969 and 0.9871 and -1.316 and the “C178S - Normalized Luminescence Counts (N=2)” value (hTA1 C178S; M = -9.522) was -1.293 and -1.48 and -0.6389 and -0.03006 and -0.3591 and -0.4489. The “C178S - Normalized Luminescence Counts (N=2)” value (hTA1 C178S; M = -10) was -0.2183 and -0.5454 and -0.966 and -0.5087 and 0.4187 and -1.556, the “C178S - Normalized Luminescence Counts (N=2)” value (hTA1 C178S; M = -10.522) was -0.7791 and -0.8258 and -0.8725 and -0.2993 and -0.5386 and -2.962 and the “C178S - Normalized Luminescence Counts (N=2)” value (hTA1 C178S; M = -11) was -1.433 and -0.8258 and -0.4987 and 1.047 and 0.4785 and -0.2993. The “C178S - Normalized Luminescence Counts (N=2)” value (hTA1 C178S; M = -11.522) was -1.293 and -0.6389 and -1.059 and 2.124 and 1.1367 and -0.9276, the “C178S - Normalized Luminescence Counts (N=2)” value (hTA1 C178S; M = -12) was -0.1249 and -0.6856 and 0.06206 and -0.2096 and -0.5386 and -1.227 and the “C178S - Normalized Luminescence Counts (N=2)” value (hTA1 C178S; M = -12.522) was -0.7323 and -0.7791 and -0.8725 and 0.2691 and -0.419 and 0.299.

From PMC10762035, “Molecular basis of human trace amine-associated receptor 1 activation” (Nature Communications, 2024)
